These results are taken from patent publication US12139481B2, “Compositions comprising macrocycle derivatives incorporating bridged macrocycles and methods of producing and using same” (Southwestern Oklahoma State University, priority 2015, dated 2024).

Test [1] has as its system Staphylococcus aureus ATCC 29213. Put plainly: Antibacterial broth dilution assay against S. aureus (modified CLSI). The format is cell-based. Particulars: for S. aureus IC50 / IC50: in vitro; for IC50: converted with molecular weight; for X more potent than ciprofloxacen: molar IC50 ratio versus ciprofloxacen. The procedure:
(§1) General Experimental Procedures. All organisms were obtained from the American Type Culture Collection (Manassas, VA) and include the fungi Candida albicans ATCC 90028, C. glabrata ATCC 90030, C. krusei ATCC 6258, and Cryptococcus neoformans ATCC 90113, and the bacteria Staphylococcus aureus ATCC 29213 and methicillin-resistant S. aureus ATCC 33591 (MRS). All organisms were tested using modified versions of the CLSI (formerly NCCLS) methods. For all organisms, optical density was used to monitor growth (NCCLS, Reference Method for Broth Dilution Antifungal Susceptibility Testing of Yeasts; Approved Standard M27-A2. National Committee on Clinical Laboratory Standards, 2002 22 (15); and NCCLS, Methods for Dilution Antimicrobial Susceptibility Tests for Bacteria that Grow Aerobically; Approved Standard, Seventh Edition M7-A7. National Committee on Clinical Laboratory Standards, 2006. 26(2)).
(§2) Samples (dissolved in DMSO) were serially-diluted in 20% DMSO/saline and transferred (10 μL) in duplicate to 96 well flat bottom microplates. Inocula were prepared by correcting the OD630 of microbe suspensions in incubation broth [RPMI 1640/0.2% dextrose/0.03% glutamine/MOPS @ pH 6.0 (Cellgro) for Candida spp., Sabouraud Dextrose for C. neoformans, and cation-adjusted Mueller-Hinton (Difco) @ pH 7.3 for Staphylococcus spp. to afford an assay volume of […] and final target inocula of: Candida spp. and C. neoformans: 1.5×10^3, and Staphylococcus spp.: 5.0×10^5 CFU/ml. Final sample test concentrations were 1/100th the DMSO stock concentration. […] All organisms were read at either 530 nm using the Biotek Powerwave XS plate reader (Bio-Tek Instruments, Vermont) prior to and after incubation: Candida spp. at 35° C. for 46-50 h, Staphylococcus spp. at 35° C. for 16-20 h, and C. neoformans at 35° C. for 70-74 h. IC50s (concentrations that afford 50% inhibition relative to controls) were calculated using XLfit 4.2 software (IDBS, Alameda, CA) using fit model 201. The MIC is defined as the lowest test concentration that allows no detectable growth. Minimum fungicidal or bactericidal concentrations were determined by removing 5 μl from each clear (or blue) well, transferring to fresh media, and incubating as previously mentioned. The MFC/MBC is defined as the lowest test concentration that kills the organism (allows no growth).
(§3) Primary Analysis. Samples were tested in duplicate at one test concentration (50 μg/mL), and percent inhibitions were calculated relative to blank and growth controls. Samples showing 50% inhibition in at least one test organism were selected for dose response (Secondary) studies.
(§4) Secondary Analysis. Extracts from the Primary Assay, and first-run pure compounds and column fractions were tested in duplicate at 3 test concentrations (5-fold dilutions). Samples dissolved to 20 mg/mL in DMSO were tested at 200, 40, and 8 μg/mL. Samples dissolved to 2 mg/mL in DMSO were tested at 20, 4, and 0.8 μg/mL.
In general terms: In broth dilution the organism is exposed to a series of concentrations in liquid medium.

Test [2] relates to Cryptococcus neoformans ATCC 90113. Put plainly: Antimicrobial microdilution assay against Cryptococcus neoformans (modified CLSI/NCCLS, optical density). The settings on record: for X more potent than Amphotericin B: C. neoformans, ratio of molar IC50 to Amphotericin B; for C. neoformans IC50 / IC50: in vitro, C. neoformans ATCC 90113; for IC50: read-out: C. neoformans IC50 (mol/L). It counts as cell-based. The procedure, abridged:
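Broth microdilution (modified CLSI) in RPMI pH 6.0, samples serially diluted in 20% DMSO/saline and tested in duplicate, growth followed by OD630 before and after incubation. MFC is the lowest concentration giving no growth when 5 μL from clear wells is plated on agar.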

In test [3] the test system is L. donovani promastigotes. Description: Antileishmanial Alamar Blue assay on promastigotes. The format is cell-based, Leishmania donovani. The settings on record: for X more potent than Pentamidine: L. donovani, ratio of molar IC50 to Pentamidine; for L. donovani IC50 / IC50: promastigotes, 48 hours, Alamar Blue; for IC50: read-out: L. donavani IC50. The protocol:
Methods: The compounds were screened in vitro against the promastigote forms of the leishmania parasites employing the Alamar Blue assay as discussed below.
Antileishmanial activity of the compounds was tested in vitro against a culture of L. donovani promastigotes, grown in RPMI 1640 medium supplemented with 10% fetal calf serum (FCS, Gibco Chem. Co., Grand Island, NY) at 26° C. A 3-day-old culture was diluted to 5×10^5 promastigotes/mL. Drug dilutions (50-3.1 μg/mL) were prepared directly in cell suspension in 96-well plates. Plates were incubated at 26° C. for 48 hours, and growth of leishmania promastigotes was determined by Alamar Blue assay. Standard fluorescence was measured on a FLUOstar® Galaxy plate reader (BMG Lab Technologies, Ortenberg, Germany) at an excitation wavelength of 544 nm and emission wavelength of 590 nm. Pentamidine and amphotericin B were used as the standard antileishmanial agents. Percent growth was calculated and plotted versus test concentration for computing the IC50 values.
For orientation: Alamar Blue is a resazurin reagent that responds to reducing activity.

Test [4] concerns C. glabrata ATCC 90030. Put plainly: Antifungal broth dilution assay against C. glabrata (modified CLSI). It counts as cell-based, Candida glabrata. Particulars: for C. glabrata IC50 / IC50: in vitro; for IC50: converted with molecular weight; for X more potent than Amphotericin B: molar IC50 ratio versus amphotericin B. The protocol: as §1, §2, §3, §4

As to `CC(=O)[O-].F[P-](F)(F)(F)(F)F.[Co+2].c1ccc(CN2CCN3CCCN(CC2)CCN(Cc2ccccc2)CC3)cc1` [AW038, [Co(Bn2PBCyclen)(C2H3O2)]PF6], in test [1], the “S. aureus IC50” value worked out at 5.080 µg/mL, the IC50 amounted to 7.75 µM and the “X more potent than ciprofloxacen” value is recorded as 0.04. Further, in test [2], the “X more potent than Amphotericin B” value is listed as 0.04, the “C. neoformans IC50” value came out at 4.370 µg/mL and the IC50 stood at 6.67 µM. Also, in test [3], the “X more potent than Pentamidine” value is 0.17, the “L. donovani IC50” value was 20.66 µg/mL and the IC50 is 31.5 µM. In test [4], the “C. glabrata IC50” value is 5.800 µg/mL, the IC50 amounted to 8.85 µM and the “X more potent than Amphotericin B” value turned out to be 0.16.
Consider `O.[Cl][Fe-2]([Cl])([Cl])[Cl].[Fe+2].c1ccc(CN2CCCN3CCCN(CCCN(Cc4ccccc4)CC3)CC2)cc1` [BME09, [Fe(Bn2PBCyclam)][FeCl4]•H2O], for which, in test [1], the “S. aureus IC50” value came to 5.130 µg/mL, the IC50 is 7.41 µM and the “X more potent than ciprofloxacen” value is reported as 0.04. Besides, in test [2], the “X more potent than Amphotericin B” value came out at 0.15, the “C. neoformans IC50” value came to 1.070 µg/mL and the IC50 came out at 1.55 µM. Moreover, in test [3], the “X more potent than Pentamidine” value worked out at 0.26, the “L. donovani IC50” value worked out at 14.10 µg/mL and the IC50 was 20.4 µM.
For `CC(=O)[O-].CC(=O)[O-].[Cu+2].c1ccc(CN2CCCN3CCCN(CCCN(Cc4ccccc4)CC3)CC2)cc1` [DJD20, Cu(Bn2PBCyclam)(OAc)2], in test [1], the “S. aureus IC50” value was 6.880 µg/mL, the IC50 is 11.4 µM and the “X more potent than ciprofloxacen” value stood at 0.02. In test [2], the “X more potent than Amphotericin B” value stood at 0.05, the “C. neoformans IC50” value came to 3.130 µg/mL and the IC50 was 5.2 µM. For the same compound, in test [3], the “X more potent than Pentamidine” value worked out at 0.22, the “L. donovani IC50” value was determined as 14.65 µg/mL and the IC50 came out at 24.3 µM.
For the compound `CC(=O)[O-].CC(=O)[O-].CN1CCCN2CCN(CCCN(Cc3ccc(CN4CCCN5CCN(C)CCCN(CC5)CC4)cc3)CC2)CC1.F[P-](F)(F)(F)(F)F.F[P-](F)(F)(F)(F)F.[Zn+2].[Zn+2]` [KS34, [Zn2(p-CB-cyclams)(OAc)2](PF6)2], in test [2], the “X more potent than Amphotericin B” value was 0.41 and the “C. neoformans IC50” value is 0.650 µg/mL. Moreover, in test [3], the “X more potent than Pentamidine” value is recorded as 0.25 and the “L. donovani IC50” value was found to be 23.49 µg/mL. For the same compound, in test [4], the “C. glabrata IC50” value worked out at 15.760 µg/mL and the “X more potent than Amphotericin B” value stood at 0.10.
`Clc1cc(CN2CCN3CCN(CCN(Cc4ccc(CN5CCN6CCN(CC5)CCN(Cc5cc(Cl)nc(Cl)c5)CC6)cc4)CC3)CC2)cc(Cl)n1` [PW111A, p-dcp2-CB-cyclens]: in test [1], the “S. aureus IC50” value is 5.530 µg/mL, the IC50 was found to be 6.75 µM and the “X more potent than ciprofloxacen” value turned out to be 0.04. In addition, in test [2], the “X more potent than Amphotericin B” value turned out to be 4.88, the “C. neoformans IC50” value was found to be 0.040 µg/mL and the IC50 worked out at 0.0488 µM. Besides, in test [3], the “X more potent than Pentamidine” value was found to be 0.34, the “L. donovani IC50” value was 12.89 µg/mL and the IC50 is 15.7 µM.
On to “[Co2(p-SB-cyclam-cyclen)(OAc)2][PF6]2 [CMB016A]”, for which, in test [2], the “X more potent than Amphotericin B” value turned out to be 0.16, the “C. neoformans IC50” value is 1.570 µg/mL and the IC50 was found to be 1.49 µM. In test [3], the “X more potent than Pentamidine” value is 0.17, the “L. donovani IC50” value was found to be 33.81 µg/mL and the IC50 was found to be 32.1 µM. For the same compound, in test [4], the “C. glabrata IC50” value turned out to be 1.100 µg/mL, the IC50 was found to be 1.04 µM and the “X more potent than Amphotericin B” value turned out to be 1.36.
Take “[Cu2(m-cyclam-homocyclen)(OAc)1.5][PF6]2.5 [AW051A]”: in test [2], the “X more potent than Amphotericin B” value was 0.23, the “C. neoformans IC50” value worked out at 1.172 µg/mL and the IC50 is 1.02 µM. In addition, in test [4], the “C. glabrata IC50” value came to 7.253 µg/mL, the IC50 worked out at 6.32 µM and the “X more potent than Amphotericin B” value was 0.22.
As for “[Cu2(p-CB-cyclam-cyclen)(OAc)2][PF6]2 [CMB029]”, in test [2], the “X more potent than Amphotericin B” value is 0.32, the “C. neoformans IC50” value is no more than 0.800 µg/mL and the IC50 amounted to 0.734 µM. In test [4], the “C. glabrata IC50” value is 4.190 µg/mL, the IC50 came out at 3.84 µM and the “X more potent than Amphotericin B” value worked out at 0.37.
With “[Ni2(p-CB-Homocyclens)(OAc)2][PF6]2 [TJH378A]”, in test [2], the “X more potent than Amphotericin B” value came out at 0.03, the “C. neoformans IC50” value was 7.540 µg/mL and the IC50 was 6.98 µM. Moreover, in test [4], the “C. glabrata IC50” value is 5.150 µg/mL, the IC50 was 4.77 µM and the “X more potent than Amphotericin B” value was 0.30.
For “[Ni2(p-CB-cyclam-cyclen)(OAc)2][PF6]2 [CMB028]”, in test [2], the “X more potent than Amphotericin B” value is listed as 0.19, the “C. neoformans IC50” value is 1.330 µg/mL and the IC50 is 1.23 µM. Besides, in test [3], the “X more potent than Pentamidine” value was 0.19, the “L. donovani IC50” value stood at 30.69 µg/mL and the IC50 came to 28.4 µM. In addition, in test [4], the “C. glabrata IC50” value was 4.490 µg/mL, the IC50 came out at 4.16 µM and the “X more potent than Amphotericin B” value amounted to 0.34.
As for “[Zn2(m-cyclam-homocyclen)(OAc)2][PF6]2 [AW052B]”, in test [1], the “S. aureus IC50” value was found to be 6.580 µg/mL, the IC50 amounted to 5.94 µM and the “X more potent than ciprofloxacen” value was 0.05. Moreover, in test [2], the “X more potent than Amphotericin B” value was found to be 0.23, the “C. neoformans IC50” value came to 1.150 µg/mL and the IC50 was found to be 1.04 µM. For the same compound, in test [3], the “X more potent than Pentamidine” value turned out to be 0.33, the “L. donovani IC50” value was determined as 17.60 µg/mL and the IC50 amounted to 15.9 µM.
Take [m-(BMBCyclams)]Br2 [DJD05]: in test [2], the “X more potent than Amphotericin B” value amounted to 0.05, the “C. neoformans IC50” value is 3.250 µg/mL and the IC50 is 4.56 µM. In test [3], the “X more potent than Pentamidine” value stood at 0.21, the “L. donovani IC50” value was 18.18 µg/mL and the IC50 worked out at 25.5 µM. In test [4], the “C. glabrata IC50” value came out at 4.213 µg/mL, the IC50 amounted to 5.91 µM and the “X more potent than Amphotericin B” value stood at 0.24.
As to [p-(DCP-BMBCyclams)]Br4 [SLK26], in test [3], the “X more potent than Pentamidine” value came out at 0.43, the “L. donovani IC50” value was found to be 14.76 µg/mL and the IC50 stood at 12.4 µM. In addition, in test [4], the “C. glabrata IC50” value stood at 5.705 µg/mL, the IC50 turned out to be 4.78 µM and the “X more potent than Amphotericin B” value came out at 0.30.
